According to PubChem BioAssay (NCI):
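96-well plates; 48 h exposure; 5 concentrations. Endpoints by linear interpolation between flanking doses. Not reached: highest tested concentration assigned. GI50 is the concentration that inhibits growth by half. At the TGI there is no net growth.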

Tests used:
Experiment in all cases: DTP human tumour cell line panel, 48 h
HCT-15 colon = system: HCT-15 colon
OVCAR-4 ovarian = system: OVCAR-4 ovarian
A498 renal = system: A498 renal
UACC-62 melanoma = system: UACC-62 melanoma
HT29 colon = system: HT29 colon
NCI-H522 lung = system: NCI-H522 lung
A549 NSCLC = system: A549 NSCLC
U251 CNS = system: U251 CNS
SK-MEL-2 melanoma = system: SK-MEL-2 melanoma
SF-295 CNS = system: SF-295 CNS

Structure (SMILES) | GI50 (HCT-15 colon) [µM] | TGI (HCT-15 colon) [µM] | GI50 (OVCAR-4 ovarian) [µM] | TGI (OVCAR-4 ovarian) [µM] | GI50 (A498 renal) [µM] | TGI (A498 renal) [µM] | GI50 (UACC-62 melanoma) [µM] | TGI (UACC-62 melanoma) [µM] | GI50 (HT29 colon) [µM] | TGI (HT29 colon) [µM] | GI50 (NCI-H522 lung) [µM] | TGI (NCI-H522 lung) [µM] | GI50 (A549 NSCLC) [µM] | TGI (A549 NSCLC) [µM] | GI50 (U251 CNS) [µM] | TGI (U251 CNS) [µM] | GI50 (SK-MEL-2 melanoma) [µM] | TGI (SK-MEL-2 melanoma) [µM] | GI50 (SF-295 CNS) [µM] | TGI (SF-295 CNS) [µM]
O=C1c2cccnc2-c2nc(-c3ccccc3)cc3c2c1nc1ccccc13 | 1.13 | 5.02 | 4.33 | 10.1 | 17.1 | 31.2 | 3.74 | 9.01 | 2.59 | 7.16 | 0.714 | 3.06 | 6.97 | 21 | 4.09 | 19.6 | 5.53 | 20.1 | 11.4 | 25.3
CCOC(=O)/C(=C/c1c(-c2ccccc2)[nH]c2ccccc12)C(=O)c1ccc(Cl)cc1 | 4.06 | > 100 | 4.82 | > 100 | 8.81 | > 100 | 3.27 | 37.1 | 3.96 | > 100 | 5.86 | > 100 | 4.61 | > 100 | 3.85 | > 100 | 3.99 | 47.5 | 4.2 | > 100
COc1cc(C2c3cc4c(cc3[C@@H](OCCN)[C@H]3COC(=O)C23)OCO4)cc(OC)c1O (stereo not given in full) |  | 24.7 |  | 5.79 |  | 1.67 |  | 0.579 |  | 2.69 |  | 0.596 |  | 1.34 |  | 0.401 |  | 0.883 |  | 0.543
C/C(=N\NC(=S)Nc1ccccc1)c1ccccn1 | 0.0338 | 13.2 | 0.0362 | 1.78 | 0.207 | 1.64 | 0.264 | 2.96 | 0.0203 | 2.54 | 0.207 | 1.61 | 0.263 | 2.9 | 0.0366 | 2.39 | 1.37 | 3.79 | 0.109 | 10.7
